The compounds below were run against T1, LKB1 (Homo sapiens, UniProt Q15831+Q7RTN6) (assay: in vitro LKB1 functional activity). Settings: APA analogs.
T1 sequence (Q15831 1-433): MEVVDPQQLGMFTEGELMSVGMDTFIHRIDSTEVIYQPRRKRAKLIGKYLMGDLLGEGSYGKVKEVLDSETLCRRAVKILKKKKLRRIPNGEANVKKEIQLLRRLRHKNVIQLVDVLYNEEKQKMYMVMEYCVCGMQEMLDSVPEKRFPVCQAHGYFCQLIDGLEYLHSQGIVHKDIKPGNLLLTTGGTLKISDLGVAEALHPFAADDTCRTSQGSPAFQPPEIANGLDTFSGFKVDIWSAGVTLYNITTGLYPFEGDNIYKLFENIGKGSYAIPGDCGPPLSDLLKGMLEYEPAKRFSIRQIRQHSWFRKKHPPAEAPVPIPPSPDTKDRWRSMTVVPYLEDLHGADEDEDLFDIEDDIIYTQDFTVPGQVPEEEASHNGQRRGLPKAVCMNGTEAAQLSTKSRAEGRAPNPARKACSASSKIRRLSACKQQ
T1 sequence (Q7RTN6 1-431): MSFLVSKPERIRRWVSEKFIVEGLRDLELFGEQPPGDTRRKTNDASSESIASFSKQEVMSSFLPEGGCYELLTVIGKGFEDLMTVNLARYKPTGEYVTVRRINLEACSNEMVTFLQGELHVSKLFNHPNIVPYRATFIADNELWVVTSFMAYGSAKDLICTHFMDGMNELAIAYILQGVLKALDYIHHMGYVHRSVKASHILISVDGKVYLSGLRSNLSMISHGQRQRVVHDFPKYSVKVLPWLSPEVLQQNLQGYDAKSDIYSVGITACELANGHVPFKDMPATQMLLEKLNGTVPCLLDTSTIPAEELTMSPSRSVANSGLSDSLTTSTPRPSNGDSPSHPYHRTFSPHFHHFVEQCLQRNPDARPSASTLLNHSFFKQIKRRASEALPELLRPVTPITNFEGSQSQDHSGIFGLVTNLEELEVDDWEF
T1 sequence (Q9Y376 1-341 partner): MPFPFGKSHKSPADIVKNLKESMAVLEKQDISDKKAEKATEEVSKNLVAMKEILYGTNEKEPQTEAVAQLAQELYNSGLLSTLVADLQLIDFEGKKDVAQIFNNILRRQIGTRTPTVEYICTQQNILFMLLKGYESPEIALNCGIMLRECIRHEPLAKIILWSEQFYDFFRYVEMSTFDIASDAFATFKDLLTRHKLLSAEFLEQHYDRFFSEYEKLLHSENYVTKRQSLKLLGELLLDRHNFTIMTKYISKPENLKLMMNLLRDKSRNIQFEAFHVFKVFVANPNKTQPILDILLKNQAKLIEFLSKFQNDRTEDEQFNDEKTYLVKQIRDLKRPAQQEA
Type: biochemical
`Cc1ccc(-c2cnc(N)c(C(=O)Nc3ccc(P(=O)(O)O)cc3)n2)cc1` [SU20668-0196, 4-(3-amino-6-p-tolylpyrazine-2-carboxamido)phenylphosphonic acid] was tested, and the “LKB1 % Act. Increase” value was “C (C=199-1000%)”.
For `CCOP(=O)(OCC)c1ccc(NC(=O)c2nc(-c3ccc(C)cc3)cnc2N)cc1` [SU20668-0211, diethyl 4-(3-amino-6-p-tolylpyrazine-2-carboxamido)phenylphosphonate], the “LKB1 % Act. Increase” value was “D (D=<1000%)”.
With `Cc1ccc(-c2cnc(N)c(C(=O)Nc3ccc(C(=O)O)cc3)n2)cc1` [SU20668-0279, 4-(3-amino-6-p-tolylpyrazine-2-carboxamido)benzoic acid] the “LKB1 % Act. Increase” value was “C (C=199-1000%)”.
With `Cc1ccc(-c2cnc(N)c(C(=O)Nc3ccc(C(N)=O)cc3)n2)cc1` [SU20668-0280, 3-amino-N-(4-carbamoylphenyl)-6-p-tolylpyrazine-2-carboxamide] the “LKB1 % Act. Increase” value was “D (D=<1000%)”.
`Cc1ccc(-c2cnc(N)c(C(=O)Nc3ccc(NS(C)(=O)=O)cc3)n2)cc1` [SU20668-0281] was tested, and the “LKB1 % Act. Increase” value was “D (D=<1000%)”.
`CNS(=O)(=O)c1ccc(NC(=O)c2nc(-c3ccc(C)cc3)cnc2N)cc1` [SU20668-0286, 3-amino-N-(4-(N-methylsulfamoyl)phenyl)-6-p-tolylpyrazine-2-carboxamide] was tested, and the “LKB1 % Act. Increase” value was “C (C=199-1000%)”.
For `Cc1ccc(-c2cnc(N)c(C(=O)Nc3ccc4c(c3)CNS4(=O)=O)n2)cc1` [SU20668-0288], the “LKB1 % Act. Increase” value was “D (D=<1000%)”.
In the case of `Cc1ccc(-c2cnc(N)c(C(=O)Nc3ccc(S(=O)(=O)C(F)(F)F)cc3)n2)cc1` [SU20668-0292, 3-amino-6-p-tolyl-N-(4-(trifluoromethylsulfonyl)phenyl)pyrazine-2-carboxamide], the “LKB1 % Act. Increase” value is reported as “D (D=<1000%)”.
For `Cc1ccc(-c2cnc(N)c(C(=O)Nc3ccc(S(C)(=O)=O)cc3)n2)cc1` [SU20668-0293, 3-amino-N-(4-(methylsulfonyl)phenyl)-6-p-tolylpyrazine-2-carboxamide], the “LKB1 % Act. Increase” value was “C (C=199-1000%)”.
`Cc1ccc(-c2cnc(N)c(C(=O)Nc3ccc(C(=O)O)c(F)c3)n2)cc1` [SU20668-0299, 4-(3-amino-6-p-tolylpyrazine-2-carboxamido)-2-fluorobenzoic acid] was tested, and the “LKB1 % Act. Increase” value was “D (D=<1000%)”.
`Cc1ccc(-c2cnc(N)c(C(=O)Nc3ccc(C(=O)O)nc3)n2)cc1` [SU20668-0300, 5-(3-amino-6-p-tolylpyrazine-2-carboxamido)picolinic acid] was tested, and the “LKB1 % Act. Increase” value was “D (D=<1000%)”.
`Cc1ccc(-c2cnc(N)c(C(=O)Nc3cnc(S(C)(=O)=O)nc3)n2)cc1` [SU20668-0303, 3-amino-N-(2-(methylsulfonyl)pyrimidin-5-yl)-6-p-tolylpyrazine-2-carboxamide] was tested, and the “LKB1 % Act. Increase” value was “D (D=<1000%)”.
In the case of `Cc1ccc(-c2cnc(N)c(C(=O)Nc3ccc(S(N)(=O)=O)nc3)n2)cc1` [SU20668-0304, 3-amino-N-(6-sulfamoylpyridin-3-yl)-6-p-tolylpyrazine-2-carboxamide], the “LKB1 % Act. Increase” value is reported as “D (D=<1000%)”.
With `COC(=O)c1ccc(NC(=O)c2nc(-c3ccc(C)cc3)cnc2N)cc1F` [SU20668-0307, methyl 4-(3-amino-6-p-tolylpyrazine-2-carboxamido)-2-fluorobenzoate] the “LKB1 % Act. Increase” value was “D (D=<1000%)”.
In the case of `Cc1ccc(-c2cnc(N)c(C(=O)Nc3ccc(C(=O)OC(C)(C)C)c(F)c3)n2)cc1` [SU20668-0308, tert-butyl 4-(3-amino-6-p-tolylpyrazine-2-carboxamido)-2-fluorobenzoate], the “LKB1 % Act. Increase” value is reported as “C (C=199-1000%)”.
With `CS(=O)(=O)c1ccc(-c2cnc(N)c(C(=O)Nc3ccc(S(N)(=O)=O)cc3)n2)cc1` [SU20668-0309, 3-amino-6-(4-(methylsulfonyl)phenyl)-N-(4-sulfamoylphenyl)pyrazine-2-carboxamide] the “LKB1 % Act. Increase” value was “C (C=199-1000%)”.
`Cc1ccc(-c2cnc(N)c(C(=O)Nc3ccc(S(=O)(=O)CC(=O)O)cc3)n2)cc1` [SU20668-0310, 2-(4-(3-amino-6-p-tolylpyrazine-2-carboxamido)phenylsulfonyl)acetic acid] was tested, and the “LKB1 % Act. Increase” value was “D (D=<1000%)”.
With `CCOC(=O)CS(=O)(=O)c1ccc(NC(=O)c2nc(-c3ccc(C)cc3)cnc2N)cc1` [SU20668-0311, ethyl 2-(4-(3-amino-6-p-tolylpyrazine-2-carboxamido)phenylsulfonyl)acetate] the “LKB1 % Act. Increase” value was “C (C=199-1000%)”.
In the case of `Cc1ccc(-c2cnc(N)c(C(=O)Nc3ccc([S@SP3](=O)(=O)CP(=O)(O)O)cc3)n2)cc1` [SU20668-0312, (((4-(3-amino-6-(p-tolyl)pyrazine-2-carboxamido)phenyl)sulfonyl)methyl)phosphonic acid], the “LKB1 % Act. Increase” value is reported as “C (C=199-1000%)”.
`CS(=O)(=O)c1ccc(NC(=O)c2nc(-c3ccc(S(C)(=O)=O)cc3)cnc2N)cc1` [SU20668-0317, methyl 3-amino-N,6-bis(4-(methylsulfonyl)phenyl)pyrazine-2-carboxamide] was tested, and the “LKB1 % Act. Increase” value was “C (C=199-1000%)”.
In the case of `CCC(=O)NS(=O)(=O)c1ccc(NC(=O)c2nc(-c3ccc(C)cc3)cnc2N)cc1` [SU20668-0325, 3-amino-N-(4-(N-propionylsulfamoyl)phenyl)-6-p-tolylpyrazine-2-carboxamide], the “LKB1 % Act. Increase” value is reported as “C (C=199-1000%)”.
For `Cc1ccc(-c2cnc(N)c(C(=O)Nc3ccc(S(=O)(=O)NC(=O)C(C)C)cc3)n2)cc1` [SU20668-0327, 3-amino-N-(4-(N-isobutyrylsulfamoyl)phenyl)-6-p-tolylpyrazine-2-carboxamide], the “LKB1 % Act. Increase” value was “D (D=<1000%)”.
For `Cc1ccc(-c2cnc(N)c(C(=O)Nc3ccc(S(=O)(=O)NC(=O)CCc4ccccc4)cc3)n2)cc1` [SU20668-0328, 3-amino-N-(4-(N-(3-phenylpropanoyl)sulfamoyl)phenyl)-6-p-tolylpyrazine-2-carboxamide], the “LKB1 % Act. Increase” value was “D (D=<1000%)”.
In the case of `Cc1ccc(-c2cnc(N)c(C(=O)Nc3ccc(CC(=O)O)cc3)n2)cc1` [SU20668-0330, 2-(4-(3-amino-6-p-tolylpyrazine-2-carboxamido)phenyl)acetic acid], the “LKB1 % Act. Increase” value is reported as “C (C=199-1000%)”.
With `Cc1ccc(-c2cnc(N)c(C(=O)Nc3ccc(CS(N)(=O)=O)cc3)n2)cc1` [SU20668-0331, 3-amino-N-(4-(sulfamoylmethyl)phenyl)-6-p-tolylpyrazine-2-carboxamide] the “LKB1 % Act. Increase” value was “C (C=199-1000%)”.
With `CCOP(=O)(O)CS(=O)(=O)c1ccc(NC(=O)c2nc(-c3ccc(C)cc3)cnc2N)cc1` [SU20668-0338, ethyl hydrogen (((4-(3-amino-6-(p-tolyl)pyrazine-2-carboxamido)phenyl)sulfonyl)methyl)phosphonate] the “LKB1 % Act. Increase” value was “D (D=<1000%)”.
In the case of `CC(=O)NS(=O)(=O)c1ccc(NC(=O)c2nc(-c3ccc(CN(C)C)cc3)cnc2N)cc1` [SU20668-0339, N-(4-(N-acetylsulfamoyl)phenyl)-3-amino-6-(4-((dimethylamino)methyl)phenyl)pyrazine-2-carboxamide], the “LKB1 % Act. Increase” value is reported as “C (C=199-1000%)”.
For `CC(=O)NS(=O)(=O)c1ccc(NC(=O)c2nc(-c3ccc(C4CCCN4)cc3)cnc2N)cc1` (stereo not drawn) [SU20668-0340, N-(4-(N-acetylsulfamoyl)phenyl)-3-amino-6-(4-(pyrrolidin-2-yl)phenyl)pyrazine-2-carboxamide], the “LKB1 % Act. Increase” value was “D (D=<1000%)”.
`CC(=O)NS(=O)(=O)c1ccc(NC(=O)c2nc(-c3cccc(C(N)=O)c3)cnc2N)cc1` [SU20668-0341, N-(4-(N-acetylsulfamoyl)phenyl)-3-amino-6-(3-carbamoylphenyl)pyrazine-2-carboxamide] was tested, and the “LKB1 % Act. Increase” value was “D (D=<1000%)”.
`CC(=O)NS(=O)(=O)c1ccc(NC(=O)c2nc(-c3ccc(C(N)=O)cc3)cnc2N)cc1` [SU20668-0342, N-(4-(N-acetylsulfamoyl)phenyl)-3-amino-6-(4-carbamoylphenyl)pyrazine-2-carboxamide] was tested, and the “LKB1 % Act. Increase” value was “D (D=<1000%)”.
With `CC(=O)NS(=O)(=O)c1ccc(NC(=O)c2nc(-c3ccc4cn[nH]c4c3)cnc2N)cc1` [SU20668-0343, N-(4-(N-acetylsulfamoyl)phenyl)-3-amino-6-(1H-indazol-6-yl)pyrazine-2-carboxamide] the “LKB1 % Act. Increase” value was “C (C=199-1000%)”.
With `CC(=O)NS(=O)(=O)c1ccc(NC(=O)c2nc(-c3ccc(N)cc3)cnc2N)cc1` [SU20668-0344, N-(4-(N-acetylsulfamoyl)phenyl)-3-amino-6-(4-aminophenyl)pyrazine-2-carboxamide] the “LKB1 % Act. Increase” value was “C (C=199-1000%)”.
For `CC(=O)NS(=O)(=O)c1ccc(NC(=O)c2nc(-c3ccc4cc[nH]c4c3)cnc2N)cc1` [SU20668-0345, N-(4-(N-acetylsulfamoyl)phenyl)-3-amino-6-(1H-indol-6-yl)pyrazine-2-carboxamide], the “LKB1 % Act. Increase” value was “C (C=199-1000%)”.
